According to paper PMC10974052, “Synthesis, Computational Study, and In Vitro α-Glucosidase Inhibitory Action of 1,3,4-Thiadiazole Derivatives of 3-Aminopyridin-2(1H)-ones” (Pharmaceuticals, 2024):

Experiments:
α-glucosidase = α-glucosidase (Saccharomyces cerevisiae, UniProt P53341); test: In vitro α-glucosidase inhibition assay (p-NPG hydrolysis, 405 nm); format: biochemical; set-up: inhibition: dose or concentration left out as unconfirmed; settings: mean ± standard error of the mean, triplicate; for inhibition: read-out: The Degree of Inhibition of α-Glucosidase Activity
Chain of α-glucosidase (P53341 whole entry): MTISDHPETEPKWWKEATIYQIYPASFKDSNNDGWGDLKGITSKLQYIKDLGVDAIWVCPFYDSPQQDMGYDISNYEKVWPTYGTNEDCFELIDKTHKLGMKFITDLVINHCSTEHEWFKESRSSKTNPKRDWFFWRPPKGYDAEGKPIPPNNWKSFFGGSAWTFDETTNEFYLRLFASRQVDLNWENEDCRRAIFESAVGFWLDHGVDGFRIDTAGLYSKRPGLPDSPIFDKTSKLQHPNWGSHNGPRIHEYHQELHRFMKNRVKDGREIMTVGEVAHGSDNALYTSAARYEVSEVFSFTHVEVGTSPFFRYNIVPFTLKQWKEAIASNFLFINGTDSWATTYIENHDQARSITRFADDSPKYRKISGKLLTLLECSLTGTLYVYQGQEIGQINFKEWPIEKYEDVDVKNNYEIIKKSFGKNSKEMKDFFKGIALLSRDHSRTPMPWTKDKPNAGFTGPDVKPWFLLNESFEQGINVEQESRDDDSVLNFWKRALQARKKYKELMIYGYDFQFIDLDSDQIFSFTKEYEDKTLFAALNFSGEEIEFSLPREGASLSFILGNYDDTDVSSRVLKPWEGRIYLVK
Protocol: Antidiabetic activity was assessed by the degree of inhibition of α-glucosidase activity by the test substances.
The study of the degree of α-glucosidase activity inhibition by the test compounds was performed using a standard method with minor modifications.
Study of the degree of inhibition of α-glucosidase activity by test compounds [25].
The principle of the method is as follows: the α-glucosidase enzyme hydrolyzes 4-Nitrophenyl α-D-glucopyranoside to form a colorimetric product (405 nm), the concentration of which is proportional to the α-glucosidase activity. […] The resulting mixture was incubated for 15 min at +37 °C, then 200 μL of a solution of 4-Nitrophenyl α-D-glucopyranoside (p-Nitrophenyl α-D-glucopyranoside, P-NPG) (5 mM) was added, and then the mixture was incubated at +37 °C for 20 min. Then, the reaction was stopped by adding 500 μL of sodium carbonate (0.1 M). A solution of α-glucosidase (1 U/mL) was used as a blank. We used 200 μL of DMSO in triplicate as a negative control. […] At the same time, a negative control was set without addition of test compounds. All samples were studied in triplicate. Inhibitory activity was expressed as a percentage (%) according to the degree of inhibition of α-glucosidase in comparison with the negative control. It was calculated by the following formula:
Inhibitory activity (%) = (1 − As/Ac)∗100%, where As is the optical density of the test compound, and Ac is the optical density of control.
The IC50 was determined from the graph of enzyme activity changes depending on the sample concentration.
Statistical processing of the results was carried out using the “Excel 365 v2401” program. […] The α-amylase and α-glucosidase enzymes determine the extent to which glucose enters the bloodstream from the gastrointestinal tract. Inhibition of these enzymes can be useful for lowering postprandial glucose levels.

Structure (SMILES)	inhibition (α-glucosidase) [%]	melting point [°C]	also measured
Cc1cc(-c2cccs2)c(NC(=O)c2nnc(-c3ccccc3C(=O)O)s2)c(=O)[nH]1 [9′c]	21 ± 2.2	–	–
Cc1cc(C)c(NC(=O)c2nnc(CCC(=O)O)s2)c(=O)[nH]1 [5′a]	36.3 ± 4.8	–	–
Cc1cc(C)c(NC(=O)c2nnc(CCCC(=O)O)s2)c(=O)[nH]1 [7′a]	34.8 ± 4.2	–	–
Cc1cc(C)c(NC(=O)c2nnc(/C=C/C(=O)O)s2)c(=O)[nH]1 [8a, (E)-3-(5-((4,6-Dimethyl-2-oxo-1,2-dihydropyridin-3-yl)carbamoyl)-1,3,4-thiadiazol-2-yl)acrylic acid]	–	261 to 263	–
Cc1cc(-c2ccccc2)c(NC(=O)c2nnc(-c3ccccc3C(=O)O)s2)c(=O)[nH]1 [9b, 2-(5-((6-Methyl-2-oxo-4-phenyl-1,2-dihydropyridin-3-yl)carbamoyl)-1,3,4-thiadiazol-2-yl)benzoic acid]	–	176 to 180	–
Cc1cc(C)c(NC(=O)c2nnc(/C=C/C(=O)O)s2)c(=O)[nH]1 [8′a]	14 ± 3	–	–
Cc1cc(-c2ccccc2)c(NC(=O)c2nnc(/C=C/C(=O)O)s2)c(=O)[nH]1 [8b, (E)-3-(5-((6-Methyl-2-oxo-4-phenyl-1,2-dihydropyridin-3-yl)carbamoyl)-1,3,4-thiadiazol-2-yl)acrylic acid]	–	199 to 202	–
Cc1cc(-c2cccs2)c(NC(=O)c2nnc(CCCC(=O)O)s2)c(=O)[nH]1 [7′c]	93.9 ± 0.4	–	–
Cc1cc(-c2ccccc2)c(NC(=O)c2nnc(CCC(=O)O)s2)c(=O)[nH]1 [5′b]	72.4 ± 2.3	–	–
Cc1cc(-c2ccccc2)c(NC(=O)c2nnc(-c3ccccc3C(=O)O)s2)c(=O)[nH]1 [9′b]	–	–	inhibition at 15000 µM (α-glucosidase; read-out: The Degree of Inhibition of α-Glucosidase Activity, tested compounds at a concentration of 15 mM (Table 1 title)): 95%
Cc1cc(-c2ccccc2)c(NC(=O)c2nnc(CCCC(=O)O)s2)c(=O)[nH]1 [7′b]	95 ± 0.2	–	–
Cc1cc(-c2cccs2)c(NC(=O)c2nnc(/C=C/C(=O)O)s2)c(=O)[nH]1 [8c, (E)-3-(5-((6-Methyl-2-oxo-4-(thiophen-2-yl)-1,2-dihydropyridin-3-yl)carbamoyl)-1,3,4-thiadiazol-2-yl)acrylic acid]	–	247 to 250	–
C[C@H]1O[C@H](O[C@H]2[C@H](O)[C@@H](O)[C@@H](O[C@H]3[C@H](O)[C@@H](O)C(O)O[C@@H]3CO)O[C@@H]2CO)[C@H](O)[C@@H](O)[C@@H]1N[C@H]1C=C(CO)[C@@H](O)[C@H](O)[C@H]1O (stereo partly shown) [Acarbose, reference compound]	–	–	The Degree of Inhibition of α-Glucosidase Activity (α-glucosidase; tested compounds at a concentration of 15 mM (Table 1 title)): 49.5 ± 1.8%
Cc1cc(-c2ccccc2)c(NC(=O)c2nnc(/C=C/C(=O)O)s2)c(=O)[nH]1 [8′b]	68.2 ± 4.7	–	–
Cc1cc(-c2cccs2)c(NC(=O)c2nnc(-c3ccccc3C(=O)O)s2)c(=O)[nH]1 [9c, 2-(5-((6-Methyl-2-oxo-4-(thiophen-2-yl)-1,2-dihydropyridin-3-yl)carbamoyl)-1,3,4-thiadiazol-2-yl)benzoic acid]	–	275 to 277	–
Cc1cc(C)c(NC(=O)c2nnc(-c3ccccc3C(=O)O)s2)c(=O)[nH]1 [9′a]	33.6 ± 6.1	–	–
Cc1cc(C)c(NC(=O)c2nnc(CCCC(=O)O)s2)c(=O)[nH]1 [7a, 4-(5-((4,6-Dimethyl-2-oxo-1,2-dihydropyridin-3-yl)carbamoyl)-1,3,4-thiadiazol-2-yl)butanoic acid]	–	248 to 250	–
Cc1cc(-c2ccccc2)c(NC(=O)c2nnc(CCCC(=O)O)s2)c(=O)[nH]1 [7b, 4-(5-((6-Methyl-2-oxo-4-phenyl-1,2-dihydropyridin-3-yl)carbamoyl)-1,3,4-thiadiazol-2-yl)butanoic acid]	–	243 to 246	–
Cc1cc(-c2cccs2)c(NC(=O)c2nnc(CCCC(=O)O)s2)c(=O)[nH]1 [7c, 4-(5-((6-Methyl-2-oxo-4-(thiophen-2-yl)-1,2-dihydropyridin-3-yl)carbamoyl)-1,3,4-thiadiazol-2-yl)butanoic acid]	–	197 to 200	–
Cc1cc(C)c(NC(=O)c2nnc(-c3ccccc3C(=O)O)s2)c(=O)[nH]1 [9a, 2-(5-((4,6-Dimethyl-2-oxo-1,2-dihydropyridin-3-yl)carbamoyl)-1,3,4-thiadiazol-2-yl)benzoic acid]	–	315 to 318	–
Cc1cc(-c2cccs2)c(NC(=O)c2nnc(/C=C/C(=O)O)s2)c(=O)[nH]1 [8′c]	8 ± 3	–	–
Cc1cc(-c2cccs2)c(NC(=O)c2nnc(CCC(=O)O)s2)c(=O)[nH]1 [5′c]	38.3 ± 2.4	–	–
